Reference: the RepoRT retention time repository
Counter-ions that a name gives are not always drawn.

experiment: RP, Waters CORTECS UPLC C18, 100 × 2.1 mm, 1.6 µm, 40 °C, 0.4 mL/min, estimated dead time 0.55 min; A: water + 0.1% formic acid, pH 3; B: acetonitrile + 0.1% formic acid, pH 3; gradient (min/%B) 0/5 1.12/5 6.41/99.5 10.01/99.5; conditions: stereoisomer not certain

LC retention time [min] | SMILES
6.58 | CCCCCCCCCCCCCCCCCC[n+]1cccc(S(=O)(=O)[O-])c1 [C18-APS]
2.9 | CCCCCC[n+]1cccc(S(=O)(=O)[O-])c1 [C6-APS]
2.34 | CSCCC(NC(C)=O)C(=O)O (stereo not given) [N-ACETYLMETHIONINE]
5.25 | CNC(=O)C(=NOC)c1ccccc1COc1cc(C)ccc1C [Dimoxystrobin]
6.34 | CCCCCCCCCCCCCCCCC[n+]1cccc(S(=O)(=O)[O-])c1 [C17-APS]
2.27 | CCC(C)C(=O)NCC(=O)O (stereo not given) [N-(2-Methylbutyryl)glycine]
5.38 | CCCCCC=CCC=CCCCCCCCC(=O)OC(CC(=O)[O-])C[N+](C)(C)C [cis,cis-9,12-Octadecadienoyl-L-carnitine]
0.871 | CCC(=O)OC(CC(=O)[O-])C[N+](C)(C)C [Propionyl-L-carnitine]
3.26 | O=C(O)CNC(=O)C=Cc1ccccc1 [N-(CINNAMOYL)GLYCINE]
4.24 | C[C@H](CCC(=O)O)[C@H]1CC[C@H]2[C@@H]3[C@H](O)C[C@@H]4C[C@H](O)CC[C@]4(C)[C@H]3CC(=O)[C@]12C [(3ALPHA,5BETA,7ALPHA)-3,7-DIHYDROXY-12-OXOCHOLAN-24-OIC ACID]
2.15 | Cn1c(=O)[nH]c2ncn(C)c2c1=O [PARAXANTHINE]
5.19 | CCOC(=O)NCCOc1ccc(Oc2ccccc2)cc1 [Fenoxycarb]
4.83 | CCOc1ccc(NC(=O)OC(C)C)cc1OCC [Diethofencarb]
0.722 | Nc1cc(C(=O)O)ccc1O [3-AMINO-4-HYDROXYBENZOATE]
2.6 | O=C(O)CNC(=O)c1ccccc1 [Hippuric acid]
4.15 | CC1=C(C(=O)Nc2ccccc2)CCCO1 [Pyracarbolid]
1.66 | O=C(O)c1ccc(O)c(O)c1 [3,4-DIHYDROXYBENZOATE]
3.31 | CCCCCCSCC(NC(=O)CCC(N)C(=O)O)C(=O)NCC(=O)O (stereo not given) [S-HEXYL-GLUTATHIONE]

LC retention time [min] | SMILES
5.25 | CC(CCC(=O)NCC(=O)O)C1CCC2C3CCC4CC(O)CCC4(C)C3CCC12C (stereo not given) [Glycolithocholic acid]
2.38 | Nc1nc2ncc(CNc3ccc(C(=O)NC(CCC(=O)O)C(=O)O)cc3)nc2c(=O)[nH]1 (stereo not given) [FOLATE]
5.93 | O=C(Nc1ccc(F)cc1)c1cccc(Oc2cccc(C(F)(F)F)c2)n1 [Picolinafen]
7.48 | CC(C)CCCC(C)C1CCC2C3=CC=C4CC(O)CCC4(C)C3CCC21C (stereo not given) [7-dehydrocholesterol]
1.5 | N[C@@H](Cc1ccc(O)c([N+](=O)[O-])c1)C(=O)O [3-NITRO-L-TYROSINE]
0.722 | Nc1c(O)cccc1C(=O)O [3-HYDROXYANTHRANILATE]
2.15 | O=C(O)c1cc(=O)c2cccc(O)c2[nH]1 [XANTHURENATE]
4.7 | CC(C)(C)C(O)C(Cc1ccc(Cl)cc1)n1cncn1 (stereo not given) [Paclobutrazol]
6.81 | CCCCCCCCCCCCCCCCCCC[n+]1cccc(S(=O)(=O)[O-])c1 [C19-APS]
3.74 | CC(CCC(=O)NCCS(=O)(=O)O)C1CCC2C3C(O)CC4CC(O)CCC4(C)C3CC(O)C12C (stereo not given) [Taurocholic acid sodium salt hydrate]
2.53 | c1ccc2[nH]c(-c3cscn3)nc2c1 [Thiabendazole]
5.17 | O=C(O)CCc1ccccc1O [3-(2-HYDROXYPHENYL)PROPANOATE]
5.2 | CC(=O)OCC(=O)C1CCC2C3CCC4=CC(=O)CCC4(C)C3CCC12C (stereo not given) [DEOXYCORTICOSTERONE ACETATE]
5.35 | CCCCCC=CCC=CCC=CCC=CCCCC(=O)OC(CC(=O)[O-])C[N+](C)(C)C [Arachidonyl-L-carnitine]
2.88 | NC(=O)c1ccccc1O [SALICYLAMIDE]
4.22 | CN(C)C(=O)NC1CCCCCCC1 [Cycluron]
3.58 | O=C(O)C=Cc1c[nH]c2ccccc12 [3-Indoleacrylic acid]

SMILES | LC retention time [min]
CC(C)OC(=O)C(C(=O)OC(C)C)=C1SCCS1 [Isoprothiolane] | 5.21
CON=C(C(=O)OC)c1ccccc1COc1ccccc1C [Kresoxim-methyl] | 5.42
O=C(NC(=O)c1c(F)cccc1F)Nc1ccc(Cl)cc1 [Diflubenzuron] | 5.11
CCCCC(C#N)(Cn1cncn1)c1ccc(Cl)cc1 (stereo not given) [Myclobutanil] | 4.93
CCON=C(CC)C1=C(O)CC(c2c(C)cc(C)cc2C)CC1=O (stereo not given) [Tralkoxidym] | 6.22
CCC(CC)Nc1c([N+](=O)[O-])cc(C)c(C)c1[N+](=O)[O-] [Pendimethalin (Penoxalin)] | 5.42
COC=C(C(=O)OC)c1ccccc1Oc1cc(Oc2ccccc2C#N)ncn1 [Azoxystrobin] | 4.91
O=C(Nc1ccccc1)Nc1ccnc(Cl)c1 [Forchlorfenuron] | 4.19
C=CCNC(=O)c1c([Si](C)(C)C)sc(C)c1C [Silthiofam] | 5.36
CS(=O)(=O)c1cc(C(F)(F)F)ccc1C(=O)c1cnoc1C1CC1 [Isoxaflutole] | 4.85
c1coc(-c2nc3ccccc3[nH]2)c1 [Fuberidazole] | 2.63
COP(=O)(OC)OC=C(Cl)Cl [Dichlorvos] | 3.89
OC(Cn1cncn1)(c1ccc(F)cc1)c1ccccc1F (stereo not given) [Flutriafol] | 4.2
COP(=O)(OC)C(O)C(Cl)(Cl)Cl (stereo not given) [Trichlorfon] | 3
COC(=O)N(OC)c1ccccc1COc1ccn(-c2ccc(Cl)cc2)n1 [Pyraclostrobin] | 5.6
CNC(=O)CSP(=O)(OC)OC [Omethoate] | 1.75
CCOP(=O)(NC(C)C)Oc1ccc(SC)c(C)c1 (stereo not given) [Fenamiphos] | 4.89
COP(N)(=O)SC (stereo not given) [Methamidophos] | 0.974
CCC(C)(NC(=O)c1cc(Cl)c(C)c(Cl)c1)C(=O)CCl (stereo not given) [Zoxamide] | 5.55
CNCCc1c[nH]c2ccccc12 [N-METHYLTRYPTAMINE] | 2.54
CCCCc1c(C)nc(NCC)[nH]c1=O [Ethirimol] | 3.01
CNC(=O)C(C)SCCSP(=O)(OC)OC (stereo not given) [Vamidothion] | 3.02
CCOP(=S)(OCC)ON=C(C#N)c1ccccc1 [Phoxim] | 5.44
CC(Cc1ccc(C(C)(C)C)cc1)CN1CCCCC1 (stereo not given) [Fenpropidine] | 4.27
COP(N)(=S)Oc1ccccc1C(=O)OC(C)C (stereo not given) [Isocarbophos] | 2.32
CC(C)Oc1cc(-n2nc(C(C)(C)C)oc2=O)c(Cl)cc1Cl [Oxadiazon] | 6.14
CON(C)C(=O)Nc1ccc(Cl)c(Cl)c1 [Linuron] | 4.8
Clc1ccc(C2(Cn3cncn3)OCCO2)c(Cl)c1 [Azaconazole] | 4.32
CCOC(=O)N(C)C(=O)CSP(=S)(OCC)OCC [Mecarbam] | 5.34
COCC(=O)N(c1c(C)cccc1C)C(C)C(=O)OC (stereo not given) [Metalaxyl] | 4.33
